Measured values taken from US20210269434A1, “TRICYCLIC COMPOUNDS AS INHIBITORS OF KRAS” (Incyte Corporation, priority 2020, published 2021).

Experiments:
KRAS G12C = KRAS G12C (Homo sapiens, UniProt P01116, G12C); assay: GDP-GTP exchange assay (KRAS_G12C exchange); format: biochemical; conditions: bodipy-GDP loaded KRAS G12C 2.5 nM, SOS1 150 nM, GppNHp; 2 hours pre-incubation, 2 hours reaction; read-out: G12C_exchange
Summary of the method: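 Fluorescence exchange of bodipy-GDP for GppNHp, SOS1-driven, read at 485/520 nm; IC50 from four-parameter variable-slope fit. Both mutants used 2.5 nM final labelled protein and a 2 h compound pre-incubation. G12C reaction had 500 uM GppNHp and 150 nM SOS1 for 2 h; G12D ran 4 h.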

[1] = system: MIA PaCa-2 (KRAS G12C) cells; assay: Cellular pERK HTRF assay (KRAS_G12C pERK); format: cell-based, human; conditions: Homo sapiens, MIA PaCa-2, 4 hours incubation, read-out: G12C_pERK
Summary of the method: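 MIA PaCa-2 cells plated overnight, then exposed to compound for 4 h at 37 °C (G12C compounds). Phospho-ERK1/2 measured in lysates by HTRF (665/620 nm) after overnight antibody incubation; IC50 from percent inhibition versus log concentration.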

KRAS G12C, sequence (P01116 1-188 isoform P01116-2 G12C): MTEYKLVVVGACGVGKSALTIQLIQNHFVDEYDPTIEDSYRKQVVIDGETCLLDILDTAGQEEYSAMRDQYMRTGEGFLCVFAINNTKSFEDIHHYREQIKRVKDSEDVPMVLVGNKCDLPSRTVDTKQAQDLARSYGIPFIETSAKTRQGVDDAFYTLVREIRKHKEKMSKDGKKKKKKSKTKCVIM

IC50 (KRAS G12C)	IC50 [1]	SMILES
≤ 100 nM	≤ 100 nM	C=CC(=O)N1CC[C@H](n2nnc3c(OC[C@@H]4CCCN4C)nc4c(F)c(-c5cccc(Cl)c5C)c(C)cc4c32)C[C@H]1CC#N [Example 98, 2-((2S,4S)-1-acryloyl-4-(7-(3-chloro-2-methylphenyl)-6-fluoro-8-methyl-4-(((S)-1-methylpyrrolidin-2-yl)methoxy)-1H-[1,2,3]triazolo[4,5-c]quinolin-1-yl)piperidin-2-yl)acetonitrile]
≤ 100 nM	≤ 100 nM	CC#CC(=O)N1CC[C@H](n2nnc3c(OC[C@@H]4CCCN4C)nc4c(F)c(-c5cccc(Cl)c5C)c(C)cc4c32)C[C@H]1CC#N [Example 99, 2-((2S,4S)-1-(but-2-ynoyl)-4-(7-(3-chloro-2-methylphenyl)-6-fluoro-8-methyl-4-(((S)-1-methylpyrrolidin-2-yl)methoxy)-1H-[1,2,3]triazolo[4,5-c]quinolin-1-yl)piperidin-2-yl)acetonitrile]
≤ 100 nM	≤ 100 nM	COC/C=C/C(=O)N1CC[C@H](n2nnc3c(OC[C@@H]4CCCN4C)nc4c(F)c(-c5cccc(Cl)c5C)c(C)cc4c32)C[C@H]1CC#N [Example 100, 2-((2S,4S)-4-(7-(3-chloro-2-methylphenyl)-6-fluoro-8-methyl-4-(((S)-1-methyl-pyrrolidin-2-yl)methoxy)-1H-[1,2,3]triazolo[4,5-c]quinolin-1-yl)-1-((E)-4-methoxybut-2-enoyl)piperidin-2-yl)acetonitrile]
≤ 100 nM	≤ 100 nM	C=CC(=O)N1CC[C@H](n2nnc3c(N4CC(C)(N(C)C)C4)nc4c(F)c(-c5cccc(Cl)c5C)c(C)cc4c32)C[C@H]1CC#N [Example 101, 2-((2S,4S)-1-acryloyl-4-(7-(3-chloro-2-methylphenyl)-4-(3-(dimethylamino)-3-methylazetidin-1-yl)-6-fluoro-8-methyl-1H-[1,2,3]triazolo[4,5-c]quinolin-1-yl)piperidin-2-yl)acetonitrile]
≤ 100 nM	≤ 100 nM	Cc1cc2c(nc(N3CC(C)(N(C)C)C3)c3nnn([C@H]4CCN(C(=O)/C=C/C(F)F)[C@H](CC#N)C4)c32)c(F)c1-c1cccc(Cl)c1C [Example 102, 2-((2S,4S)-4-(7-(3-chloro-2-methylphenyl)-4-(3-(dimethylamino)-3-methylazetidin-1-yl)-6-fluoro-8-methyl-1H-[1,2,3]triazolo-[4,5-c]quinolin-1-yl)-1-((E)-4,4-difluorobut-2-enoyl)-piperidin-2-yl)acetonitrile]
≤ 100 nM	≤ 100 nM	CC#CC(=O)N1CC[C@H](n2nnc3c(N4CC(C)(N(C)C)C4)nc4c(F)c(-c5cccc(Cl)c5C)c(C)cc4c32)C[C@H]1CC#N [Example 103, 2-((2S,4S)-1-(but-2-ynoyl)-4-(7-(3-chloro-2-methyl-phenyl)-4-(3-(dimethyl-amino)-3-methylazetidin-1-yl)-6-fluoro-8-methyl-1H-[1,2,3]triazolo[4,5-c]quinolin-1-yl)piperidin-2-yl)acetonitrile]
≤ 100 nM	≤ 100 nM	Cc1cc2c(nc(N3CC(C)(N(C)C)C3)c3nnn([C@H]4CCN(C(=O)/C=C/CF)[C@H](CC#N)C4)c32)c(F)c1-c1cccc(Cl)c1C [Example 104, 2-((2S,4S)-4-(7-(3-chloro-2-methylphenyl)-4-(3-(dimethylamino)-3-methyl-azetidin-1-yl)-6-fluoro-8-methyl-1H-[1,2,3]triazolo[4,5-c]quinolin-1-yl)-1-((E)-4-fluorobut-2-enoyl)piperidin-2-yl)acetonitrile]
≤ 100 nM	≤ 100 nM	Cc1cc2c(nc(N3CC(C)(N(C)C)C3)c3nnn([C@H]4CCN(C(=O)/C=C/CN(C)C)[C@H](CC#N)C4)c32)c(F)c1-c1cccc(Cl)c1C [Example 105, 2-((2S,4S)-4-(7-(3-chloro-2-methylphenyl)-4-(3-(dimethylamino)-3-methylazetidin-1-yl)-6-fluoro-8-methyl-1H-[1,2,3]triazolo[4,5-c]quinolin-1-yl)-1-((E)-4-(dimethylamino)but-2-enoyl)piperidin-2-yl)acetonitrile]
